# Assays:
# Type in all cases: cell-based
# human TLR9 = target: T1, human TLR9 (Homo sapiens, UniProt Q9NR96); assay: TLR9 inhibition reporter assay (HEK-Blue cells, SEAP reporter); details: HEK-Blue cells overexpressing human TLR9; stimulated with ODN2006 5 nM; SEAP after 22 hour incubation
# T1 construct: host or cells: HEK-Blue cells (HEK293-derived reporter line)
# T1 sequence (Q9NR96 26-1032): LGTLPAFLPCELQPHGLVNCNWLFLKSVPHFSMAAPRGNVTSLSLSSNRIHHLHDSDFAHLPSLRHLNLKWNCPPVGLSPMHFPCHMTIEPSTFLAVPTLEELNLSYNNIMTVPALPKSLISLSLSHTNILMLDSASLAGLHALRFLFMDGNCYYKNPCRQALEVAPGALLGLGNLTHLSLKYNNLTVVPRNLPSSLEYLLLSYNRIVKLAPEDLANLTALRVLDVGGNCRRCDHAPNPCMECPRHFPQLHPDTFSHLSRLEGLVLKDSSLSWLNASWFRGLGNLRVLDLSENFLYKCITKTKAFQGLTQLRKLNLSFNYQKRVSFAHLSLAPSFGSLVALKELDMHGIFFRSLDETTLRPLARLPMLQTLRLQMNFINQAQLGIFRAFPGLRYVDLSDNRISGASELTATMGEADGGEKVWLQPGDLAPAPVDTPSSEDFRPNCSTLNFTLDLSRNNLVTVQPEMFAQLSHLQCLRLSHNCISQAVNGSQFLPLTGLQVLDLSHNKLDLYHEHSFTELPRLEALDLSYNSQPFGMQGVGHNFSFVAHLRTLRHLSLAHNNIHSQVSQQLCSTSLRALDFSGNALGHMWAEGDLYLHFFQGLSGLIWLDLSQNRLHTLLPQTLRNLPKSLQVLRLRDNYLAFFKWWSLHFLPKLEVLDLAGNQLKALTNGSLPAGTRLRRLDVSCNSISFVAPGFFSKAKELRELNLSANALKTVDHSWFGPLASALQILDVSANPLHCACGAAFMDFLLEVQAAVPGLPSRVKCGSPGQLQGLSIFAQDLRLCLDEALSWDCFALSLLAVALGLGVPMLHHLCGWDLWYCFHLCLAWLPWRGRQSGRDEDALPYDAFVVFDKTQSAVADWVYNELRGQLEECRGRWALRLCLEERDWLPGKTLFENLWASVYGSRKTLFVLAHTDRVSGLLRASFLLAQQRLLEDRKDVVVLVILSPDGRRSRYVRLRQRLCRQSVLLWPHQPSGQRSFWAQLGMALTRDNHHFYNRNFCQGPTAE
# Experimental: (§1) TLR7/8/9 Inhibition Reporter Assays
# (§2) HEK-Blue™-cells (Invivogen) overexpressing human TLR7, TLR8 or TLR9 receptors were used for screening inhibitors of these receptors using an inducible SEAP (secreted embryonic alkaline phosphatase) reporter gene under the control of the IFN-β minimal promoter fused to five NF-κB and AP-1-binding sites. Briefly, cells are seeded into Greiner 384 well plates (15000 cells per well for TLR7, 20,000 for TLR8 and 25,000 for TLR9) and then treated with test compounds in DMSO to yield a final dose response concentration range of 0.05 nM-50 μM. After a 30 minute compound pre-treatment at room temperature, the cells are then stimulated with a TLR7 ligand (gardiquimod at a final concentration of 7.5 μM), TLR8 ligand (R848 at a final concentration of 15.9 μM) or TLR9 ligand (ODN2006 at a final concentration of 5 nM) to activate NF-κB and AP-1 which induce the production of SEAP. After a 22 hour incubation at 37° C., 5% CO2, SEAP levels are determined with the addition of HEK-Blue™ Detection reagent (Invivogen), a cell culture medium that allows for detection of SEAP, according to manufacturer's specifications. The percent inhibition is determined as the % reduction in the HEK-Blue signal present in wells treated with agonist plus DMSO alone compared to wells treated with a known inhibitor.
# human TLR8 = target: T2, human TLR8 (Homo sapiens, UniProt Q9NR97); assay: TLR8 inhibition reporter assay (HEK-Blue cells, SEAP reporter); details: HEK-Blue cells overexpressing human TLR8; stimulated with R848 15.9 μM; SEAP after 22 hour incubation
# T2 construct: host or cells: HEK-Blue cells (HEK293-derived reporter line)
# T2 sequence (Q9NR97 27-1041): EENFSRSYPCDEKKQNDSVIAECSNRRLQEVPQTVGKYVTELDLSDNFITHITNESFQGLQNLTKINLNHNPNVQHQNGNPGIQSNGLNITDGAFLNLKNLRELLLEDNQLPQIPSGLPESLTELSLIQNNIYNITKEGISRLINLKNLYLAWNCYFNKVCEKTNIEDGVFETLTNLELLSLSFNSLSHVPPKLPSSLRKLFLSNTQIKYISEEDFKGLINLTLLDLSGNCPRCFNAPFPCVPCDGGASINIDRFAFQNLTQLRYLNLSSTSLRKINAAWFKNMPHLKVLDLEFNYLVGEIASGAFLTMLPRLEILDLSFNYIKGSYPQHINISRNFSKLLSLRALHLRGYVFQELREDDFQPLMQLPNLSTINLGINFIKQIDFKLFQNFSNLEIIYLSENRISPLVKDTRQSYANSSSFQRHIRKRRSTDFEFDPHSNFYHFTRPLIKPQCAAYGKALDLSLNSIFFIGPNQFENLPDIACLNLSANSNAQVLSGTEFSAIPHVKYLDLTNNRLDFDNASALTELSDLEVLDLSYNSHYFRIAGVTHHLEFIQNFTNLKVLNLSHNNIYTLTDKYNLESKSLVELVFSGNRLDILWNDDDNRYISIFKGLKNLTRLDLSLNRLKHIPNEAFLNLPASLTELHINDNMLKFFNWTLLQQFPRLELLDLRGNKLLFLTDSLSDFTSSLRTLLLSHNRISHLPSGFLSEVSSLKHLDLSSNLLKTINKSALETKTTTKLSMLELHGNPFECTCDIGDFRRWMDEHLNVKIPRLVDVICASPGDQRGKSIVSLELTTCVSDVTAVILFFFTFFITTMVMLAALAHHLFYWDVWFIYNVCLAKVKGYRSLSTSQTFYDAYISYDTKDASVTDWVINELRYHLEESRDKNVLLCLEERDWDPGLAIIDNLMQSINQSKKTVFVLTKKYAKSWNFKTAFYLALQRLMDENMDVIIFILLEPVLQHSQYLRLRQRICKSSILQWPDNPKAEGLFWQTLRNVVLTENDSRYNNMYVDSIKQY
# Experimental: as §1, §2
# human TLR7 = target: T3, human TLR7 (Homo sapiens, UniProt Q9NYK1); assay: TLR7 inhibition reporter assay (HEK-Blue cells, SEAP reporter); details: HEK-Blue cells overexpressing human TLR7; stimulated with gardiquimod 7.5 μM; SEAP after 22 hour incubation
# T3 construct: host or cells: HEK-Blue cells (HEK293-derived reporter line)
# T3 sequence (Q9NYK1 27-1049): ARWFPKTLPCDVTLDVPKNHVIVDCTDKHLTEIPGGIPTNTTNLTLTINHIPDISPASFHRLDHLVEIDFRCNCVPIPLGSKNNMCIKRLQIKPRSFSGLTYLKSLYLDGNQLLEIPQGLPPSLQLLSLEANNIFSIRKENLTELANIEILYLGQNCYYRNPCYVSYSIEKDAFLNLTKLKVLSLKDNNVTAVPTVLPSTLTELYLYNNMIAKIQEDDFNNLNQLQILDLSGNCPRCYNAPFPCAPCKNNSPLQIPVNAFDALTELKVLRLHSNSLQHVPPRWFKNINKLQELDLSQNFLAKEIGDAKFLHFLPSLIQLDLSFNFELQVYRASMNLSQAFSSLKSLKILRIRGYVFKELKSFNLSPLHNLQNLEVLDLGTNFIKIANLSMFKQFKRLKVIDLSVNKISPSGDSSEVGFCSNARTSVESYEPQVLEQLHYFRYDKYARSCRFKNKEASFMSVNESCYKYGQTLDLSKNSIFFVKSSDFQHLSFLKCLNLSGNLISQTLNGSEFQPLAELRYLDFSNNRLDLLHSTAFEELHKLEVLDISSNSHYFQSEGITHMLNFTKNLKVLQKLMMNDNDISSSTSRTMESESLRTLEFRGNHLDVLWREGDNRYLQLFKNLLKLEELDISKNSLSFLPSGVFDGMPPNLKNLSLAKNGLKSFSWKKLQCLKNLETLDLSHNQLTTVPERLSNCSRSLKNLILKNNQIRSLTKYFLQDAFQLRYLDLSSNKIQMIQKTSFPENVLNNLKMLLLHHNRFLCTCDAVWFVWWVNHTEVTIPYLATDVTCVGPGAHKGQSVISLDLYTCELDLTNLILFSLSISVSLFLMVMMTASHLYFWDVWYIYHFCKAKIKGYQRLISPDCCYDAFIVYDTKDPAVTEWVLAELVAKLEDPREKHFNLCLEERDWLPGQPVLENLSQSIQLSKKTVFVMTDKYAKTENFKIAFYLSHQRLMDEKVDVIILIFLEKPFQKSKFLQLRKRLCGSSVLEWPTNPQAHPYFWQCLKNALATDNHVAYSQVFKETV
# Experimental: as §1, §2
SMILES,IC50 (human TLR9) [µM],IC50 (human TLR8) [µM],IC50 (human TLR7) [µM]
"COc1ccc(-c2cc3ncc(-c4ccc(N5CCN(CC(C)(C)O)CC5)cc4)cc3n2C)cc1OC [Example 4, 1-(4-(4-(2-(3,4-Dimethoxyphenyl)-1-methyl-1H-pyrrolo[3,2-b]pyridin-6-yl)phenyl)piperazin-1-yl)-2-methylpropan-2-ol]",0.256,,
"COc1ccc(-c2cc3ncc(-c4ccc(C(=O)N5CCN(C(C)C)CC5)cc4)cc3n2C)cc1OC [Example 5, (4-(2-(3,4-Dimethoxyphenyl)-1-methyl-1H-pyrrolo[3,2-b]pyridin-6-yl)phenyl)(4-isopropylpiperazin-1-yl)methanone]",,10.2,7.2
"CC(C)CN1CCN(c2ccc(-c3cnc4cc(-c5ccc(S(C)(=O)=O)cc5)n(C)c4c3)cc2)CC1 [Example 6, 6-(4-(4-Isobutylpiperazin-1-yl)phenyl)-1-methyl-2-(4-(methylsulfonyl)phenyl)-1H-pyrrolo[3,2-b]pyridine]",0.139,,
"COc1ccc(-c2cc3ncc(-c4ccc(N5CCN(C(C)C)CC5)nc4)cc3n2C)cc1OC [Example 9, 2-(3,4-dimethoxyphenyl)-6-(6-(4-isopropylpiperazin-1-yl)pyridin-3-yl)-1-methyl-1H-pyrrolo[3,2-b]pyridine]",,8.7,4.7
"COc1ccc(-c2cc3ncc(-c4ccc(N5CCN(C(C)C)CC5)cc4)cc3n2C)cc1F [Example 10, 2-(3-fluoro-4-methoxyphenyl)-6-(4-(4-isopropylpiperazin-1-yl)phenyl)-1-methyl-1H-pyrrolo[3,2-b]pyridine]",,41.7,15.5
"CC(C)N1CCN(c2ccc(-c3cnc4cc(-c5ccc(S(C)(=O)=O)cc5)[nH]c4c3)cc2)CC1 [Example 11, 6-(4-(4-isopropylpiperazin-1-yl)phenyl)-2-(4-(methylsulfonyl)phenyl)-1H-pyrrolo[3,2-b]pyridine]",,> 50,1.9
"Cn1c(-c2ccc(S(C)(=O)=O)cc2)cc2ncc(-c3ccc(N4CCN(CCC(C)(C)O)CC4)cc3)cc21 [Example 16, -methyl-4-(4-(4-(1-methyl-2-(4-(methylsulfonyl)phenyl)-1H-pyrrolo[3,2-b]pyridin-6-yl)phenyl)piperazin-1-yl)butan-2-ol]",,4.7,8.7
Cn1c(-c2ccc(S(C)(=O)=O)cc2)cc2ncc(-c3ccc(N4CCN5CCCC5C4)cc3)cc21 (stereo not shown) [Example 27],0.275,,
CC(C)N1[C@H](C)CN(c2ccc(-c3cnc4cc(-c5ccc(S(C)(=O)=O)cc5)n(C)c4c3)cc2)C[C@H]1C [Example 35],0.091,,

# Second part, the compound after the results:
IC50 (human TLR9) [µM],IC50 (human TLR8) [µM],IC50 (human TLR7) [µM],SMILES
,5.6,14.4,"COc1ccc(-c2cc3ncc(-c4ccc(N5CCN(CC6CC6)CC5)cc4)cc3n2C)cc1OC [Example 8, 6-(4-(4-(cyclopropylmethyl)piperazin-1-yl)phenyl)-2-(3,4-dimethoxyphenyl)-1-methyl-1H-pyrrolo[3,2-b]pyridine]"
,1.3,4.8,"COc1ccc(-c2cc3ncc(-c4ccc(N5CCN(CCC(C)(C)O)CC5)cc4)cc3n2C)cc1OC [Example 12, 4-(4-(4-(2-(3,4-dimethoxyphenyl)-1-methyl-1H-pyrrolo[3,2-b]pyridin-6-yl)phenyl)piperazin-1-yl)-2-methylbutan-2-ol]"
,3.6,3,"COc1ccc(-c2cc3ncc(-c4ccc(N5CCNCC5)cc4)cc3n2C)cc1OC [Example 13, 2-(3,4-dimethoxyphenyl)-1-methyl-6-(4-(piperazin-1-yl)phenyl)-1H-pyrrolo[3,2-b] pyridine]"
,> 50,29.6,"CC(C)CN1CCN(c2ccc(-c3cnc4cc(-c5ccc(S(C)(=O)=O)cc5)[nH]c4c3)cc2)CC1 [Example 14, 6-(4-(4-isobutylpiperazin-1-yl)phenyl)-2-(4-(methylsulfonyl)phenyl)-1H-pyrrolo[3,2-b]pyridine]"
,11.2,≥ 50,"Cn1c(-c2ccc(S(C)(=O)=O)cc2)cc2ncc(-c3ccc(N4CCN(CC(C)(C)O)CC4)cc3)cc21 [Example 15, 2-methyl-1-(4-(4-(1-methyl-2-(4-(methylsulfonyl)phenyl)-1H-pyrrolo[3,2-b]pyridin-6-yl)phenyl)piperazin-1-yl)propan-2-ol]"
0.094,,,CC(C)N1C2CCC1CN(c1ccc(-c3cnc4cc(-c5ccc(S(C)(=O)=O)cc5)n(C)c4c3)cc1)C2 [Example 26]

# From patent US20230322770A1, “SUBSTITUTED HETEROARYL COMPOUNDS USEFUL AS INHIBITORS OF TLR9” (BRISTOL-MYERS SQUIBB COMPANY, priority 2020, published 2023)
